Test results: the supplement of paper PMC10307832

Experiments:
Assay in all cases: relative viability (nuclei count vs DMSO), 5 days (fraction); higher = more cells survive
[1] = compound: COc1cc2ncn(-c3cc(OCc4ccccc4C(F)(F)F)c(C(N)=O)s3)c2cc1OC + Cc1nc(Nc2ncc(C(=O)Nc3c(C)cccc3Cl)s2)cc(N2CCN(CCO)CC2)n1 [Dasatinib] (partner 0.075 µM)
Outline: (§1)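 Values are medians from duplicate plates. Each reflects relative viability, defined as the nuclei count of treated wells over that of vehicle wells. Lung cancer cell lines in 1536-well plates were pin-tool dosed one day after seeding with one drug alone or with a fixed anchor-drug dose plus five library-drug doses (not always all listed) in √10 steps, then fixed, stained and imaged at 4× after 5 days.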

[2] = compound: COc1cc2ncn(-c3cc(OCc4ccccc4C(F)(F)F)c(C(N)=O)s3)c2cc1OC + COc1cc2c(Oc3ccc(NC(=O)C4(C(=O)Nc5ccc(F)cc5)CC4)cc3F)ccnc2cc1OCCCN1CCOCC1 [Foretinib] (partner 0.25 µM)
Outline: as §1

[3] = compound: COc1cc2ncn(-c3cc(OCc4ccccc4C(F)(F)F)c(C(N)=O)s3)c2cc1OC + Nc1ncn([C@H]2C[C@H](O)[C@@H](CO)O2)c(=O)n1 [Decitabine] (partner 2 µM)
Outline: as §1

[4] = compound: COc1cc2ncn(-c3cc(OCc4ccccc4C(F)(F)F)c(C(N)=O)s3)c2cc1OC + CCNC(=O)c1noc(-c2cc(C(C)C)c(O)cc2O)c1-c1ccc(CN2CCOCC2)cc1 [Luminespib] (partner 0.01 µM)
Outline: as §1

| Cell Line | relative viability ([1]; first compound 0.05 µM) | relative viability ([1]; first compound 0.1581 µM) | relative viability ([1]; first compound 0.5 µM) | relative viability ([1]; first compound 1.581 µM) | relative viability ([1]; first compound 5 µM) | relative viability ([2]; first compound 0.05 µM) | relative viability ([2]; first compound 0.1581 µM) | relative viability ([2]; first compound 0.5 µM) | relative viability ([2]; first compound 1.581 µM) | relative viability ([2]; first compound 5 µM) | relative viability ([3]; first compound 0.05 µM) | relative viability ([3]; first compound 0.1581 µM) | relative viability ([3]; first compound 0.5 µM) | relative viability ([3]; first compound 1.581 µM) | relative viability ([3]; first compound 5 µM) | relative viability ([4]; first compound 0.05 µM) | relative viability ([4]; first compound 0.1581 µM) | relative viability ([4]; first compound 0.5 µM) | relative viability ([4]; first compound 1.581 µM) | relative viability ([4]; first compound 5 µM) |
| --- | --- | --- | --- | --- | --- | --- | --- | --- | --- | --- | --- | --- | --- | --- | --- | --- | --- | --- | --- | --- |
| NCI-H838 | 0.302 | 0.291 | 0.224 | 0.255 | 0.156 | 1.17 | 1.09 | 0.832 | 0.455 | 0.139 | 0.401 | 0.426 | 0.328 | 0.169 | 0.135 | 0.301 | 0.283 | 0.128 | 0.136 | 0.114 |
| NCI-H1355 | 0.707 | 0.739 | 0.491 | 0.163 | 0.143 | 0.935 | 0.888 | 0.642 | 0.218 | 0.139 | 0.29 | 0.333 | 0.282 | 0.187 | 0.169 | 0.635 | 0.623 | 0.424 | 0.221 | 0.163 |
| NCI-H1395 | 0.413 | 0.438 | 0.455 | 0.358 | 0.306 | 0.932 | 1.01 | 0.686 | 0.448 | 0.556 | 0.736 | 0.753 | 0.596 | 0.373 | 0.342 | 0.753 | 0.814 | 0.579 | 0.321 | 0.359 |
| NCI-H1437 | 0.412 | 0.356 | 0.322 | 0.162 | 0.104 | 1.38 | 1.17 | 0.456 | 0.267 | 0.194 | 0.564 | 0.561 | 0.34 | 0.266 | 0.272 | 1.16 | 0.969 | 0.53 | 0.244 | 0.159 |
| NCI-H1650 | 0.329 | 0.305 | 0.268 | 0.142 | 0.145 | 1.04 | 1.01 | 1.08 | 0.13 | 0.139 | 0.396 | 0.382 | 0.329 | 0.219 | 0.138 | 0.187 | 0.187 | 0.193 | 0.19 | 0.185 |
| NCI-H1651 | 0.403 | 0.39 | 0.198 | 0.0914 | 0.0837 | 0.832 | 0.893 | 0.655 | 0.118 | 0.102 | 0.619 | 0.64 | 0.463 | 0.192 | 0.263 | 1.15 | 0.858 | 0.36 | 0.137 | 0.109 |
| NCI-H1666 | 0.825 | 0.758 | 0.518 | 0.316 | 0.271 | 0.927 | 0.832 | 0.507 | 0.393 | 0.354 | 0.749 | 0.719 | 0.693 | 0.501 | 0.424 | 1.06 | 0.937 | 0.508 | 0.36 | 0.363 |
| NCI-H1734 | 0.477 | 0.516 | 0.387 | 0.197 | 0.129 | 0.85 | 1.06 | 0.56 | 0.257 | 0.204 | 0.382 | 0.588 | 0.469 | 0.214 | 0.157 | 0.18 | 0.239 | 0.17 | 0.147 | 0.125 |
